This note sets out measurements from US8921563B2, “1-[(4-hydroxypiperidin-4-yl)methyl]pyridin-2(1H)-one derivatives, preparation methods and uses thereof” (Institue of Pharmacology and Toxicology Academy of Military …, priority 2010, dated 2014).

Broadly, the inhibition is the relative decrease from the control value, in per cent.

The target of assay [1] is T1, 5-HT transport protein (SERT) (Rattus norvegicus, UniProt P31652).
T1 construct: Preparation of Membrane Proteins in Rat Hippocampi; from tissue; host or cells: Wistar rat hippocampus
Kind of assay: Screening: competitive binding test to SERT using [3H]-citalopram. Conditions: [3H]-citalopram 1 nM; for inhibition at 10 µM / inhibition at 0.1 µM: read-out: Inhibition percent (I %), competitive binding to 5-HT transport protein (SERT). The procedure:
The homogenate was centrifuged under 1000×g for 10 minutes and the supernatant was then centrifuged under 39000×g for 10 minutes. The precipitate was collected, and resuspended with 10 times volume of Tris-HCl buffer solution (pH 7.4) relative to the original weight, then centrifuged under 39000×g for 10 minutes. The precipitate was washed with the same buffer solution, centrifuged under 39000×g for 10 minutes and the precipitate was suspended with the above buffer solution. After sub-packaged (the whole operation procedures were performed under ice bath), the product was stored at −80° C. The protein concentration was measured by Lowrry method.

The target of assay [2] is T2, 5-HT1A receptor (Rattus norvegicus, UniProt P19327).
T2 construct: the content of 5-HT1A receptor extracted from rat hippocampi was 5.5 mg/ml; from tissue; host or cells: Wistar rat hippocampus, membrane preparation
T2 sequence (P19327 1-422): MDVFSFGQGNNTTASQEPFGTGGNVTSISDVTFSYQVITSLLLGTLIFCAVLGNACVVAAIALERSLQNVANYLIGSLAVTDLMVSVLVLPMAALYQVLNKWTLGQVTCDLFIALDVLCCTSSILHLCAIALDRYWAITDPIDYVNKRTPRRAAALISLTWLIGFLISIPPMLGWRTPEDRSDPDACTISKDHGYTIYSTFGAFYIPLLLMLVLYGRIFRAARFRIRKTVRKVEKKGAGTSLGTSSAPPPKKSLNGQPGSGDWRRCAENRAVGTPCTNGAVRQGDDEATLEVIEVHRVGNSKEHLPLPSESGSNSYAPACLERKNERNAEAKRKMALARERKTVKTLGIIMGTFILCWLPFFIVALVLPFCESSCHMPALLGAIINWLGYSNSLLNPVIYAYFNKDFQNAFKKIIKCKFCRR
Kind of assay: Screening: competitive binding test to 5-HT1A receptor using [3H]-8-OH-DPAT, rat hippocampi membrane protein. Particulars: [3H]-8-OH-DPAT 1.28 nM; for inhibition at 10 µM / inhibition at 0.1 µM: read-out: Inhibition percent (I %), competitive binding to 5-HT1A receptor. As to the method:
1.4.1 Screening of YL Series Compounds
(1) Preparation of Membrane Proteins in Rat Hippocampi
Wister rats, 220-260 g, female and male, were sacrificed by decapitation and hippocampis were rapidly separated, weighed and to which homogenized in 10 times volume of Tris-HCl buffer solution (50 mM Tris-HCl, 5 mM MgCl2,1 mM EDTA, 0.5% (WN) BSA, 1 mM PMSF, 3 μg/ml proteinase inhibitor, 0.1% NaN3, 0.32M sucrose, pH 7.4) at 15,000 rpm for 30 s, total 5 times. The homogenate was centrifuged under 1000×g for 10 minutes and the supernatant was then centrifuged under 39000×g for 10 minutes. The precipitate was collected, and resuspended with 10 times volume of Tris-HCl buffer solution (pH 7.4) relative to the original weight, then centrifuged under 39000×g for 10 minutes. The precipitate was washed with the same buffer solution, centrifuged under 39000×g for 10 minutes and the precipitate was suspended with the above buffer solution. After sub-packaged (the whole operation procedures were performed under ice bath), the product was stored at −80° C. The protein concentration was measured by Lowrry method.
1) In the 5-HT1A receptor binding test, tubes are firstly placed under reaction condition of 25° C.
2) To all of the tubes, the receptor proteins extracted from rat hippocampi in an amount of 100 μg were added in sequence.
4) To the test tubes, 30 μl of the compound in corresponding concentrations (used for screening: 10^−5, 10^−7, 10^−9M) was added in sequence.
6) Tris-HCl buffer solution (50 mM Tris-HCl, 1 mM EDTA, 5 mM MgCl2, 0.1 mM PMSF, 0.1% NaN3, pH 7.4) was supplied to all of the tubes to reach a volume of 300 μl.
7) The reaction was performed at 25° C. for 1 h.
8) Then samples were applied to 49-type glass fibre filter, vacuum suction filtered, then washed three times with 2 ml ice-cold Tris-HCl buffer solution (50 mM Tris-HCl buffer solution, 1 mM EDTA, 5 mM MgCl2, 1 mM PMSF, 0.1% NaN3, 3 μg/ml proteinase inhibitor, pH 7.4). […] The radio-activity was measured by a scintillation counter.

Assay [3] relates to mice. Kind of assay: Tail suspension test in mice. The format is in vivo. Particulars: 30 mg/kg p.o., acute, 1 h before test. An excerpt: 2.1.2 Tail Suspension Test in Mice
Tail suspension test in mice is an acute behavioral despair model established by Stem, et al. (1985).
1) Experimental device: an experimental frame with spacing boards which dividing the experimental frame into 2 experimental chambers (20×25×30 cm). A clamp is mounted on a through cross rod in the chamber for clamping mice tail so as to suspend the mice.
2) Experimental method: Male Kunming mice weighing 20-25 g. The mice were intragastrically administered with YL-0911 or vehicle (distilled water). After 1 h, wrap adhesive tape around the mouse's tail in position three quarters of the distance from the base of the tail and then suspend the animals by passing the suspension hook through the adhesive tape 5 cm above the table. The duration of immobility in the last 4 min of total 6 min test was recorded.

For assay [4], the system named is mice. The experiment in a line: Hole board test in mice. The class given is in vivo. Particulars: 10 mg/kg p.o., long-term (23 days). As to the method: Hole board test, an animal model of anxiety established by Boissie, et al (1962), was performed in mice.
1) Experimental device: a transparent Perspex box (40×40×27 cm) which had four holes (3 cm in diameter, 1.8 cm in depth) in the floor. The distance of each hole center to its closest wall is 10 cm.
2) Experimental method: Male Kunming mice weighing 20-25 g. The mice were intragastrically administered with YL-0911 or vehicle (distilled water). After 23 days, the mice were placed at center of the hole board with their backs facing to the observer. A head dip was scored if the animal's head dipped into the hole at least up to eye level The latency to the first head-dip, the number of head-dips and the time spent in head-dipping were recorded for 5 min.

Assay [5] deals with mice. The experiment in a line: Forced swim test in mice. The class given is in vivo. Conditions: 40 mg/kg p.o., acute, 1 h before test. The procedure:
2.1.1 Forced Swim Test in Mice
Forced swim test in mice is an acute behavioral despair model established by Porsolt, et al.
(1) Experimental device: a glass cylinder (diameter 13 cm, height 24 cm, containing 10 cm of water maintained at 25).
(2) Experimental method: Male Kunming mice weighing 20-25 g. The mice were gently put in the water 1 h after intragastrically drug administration, and then the duration of immobility in the last 4 min of total 6 min test was recorded.

T1 sequence (P31652 whole entry): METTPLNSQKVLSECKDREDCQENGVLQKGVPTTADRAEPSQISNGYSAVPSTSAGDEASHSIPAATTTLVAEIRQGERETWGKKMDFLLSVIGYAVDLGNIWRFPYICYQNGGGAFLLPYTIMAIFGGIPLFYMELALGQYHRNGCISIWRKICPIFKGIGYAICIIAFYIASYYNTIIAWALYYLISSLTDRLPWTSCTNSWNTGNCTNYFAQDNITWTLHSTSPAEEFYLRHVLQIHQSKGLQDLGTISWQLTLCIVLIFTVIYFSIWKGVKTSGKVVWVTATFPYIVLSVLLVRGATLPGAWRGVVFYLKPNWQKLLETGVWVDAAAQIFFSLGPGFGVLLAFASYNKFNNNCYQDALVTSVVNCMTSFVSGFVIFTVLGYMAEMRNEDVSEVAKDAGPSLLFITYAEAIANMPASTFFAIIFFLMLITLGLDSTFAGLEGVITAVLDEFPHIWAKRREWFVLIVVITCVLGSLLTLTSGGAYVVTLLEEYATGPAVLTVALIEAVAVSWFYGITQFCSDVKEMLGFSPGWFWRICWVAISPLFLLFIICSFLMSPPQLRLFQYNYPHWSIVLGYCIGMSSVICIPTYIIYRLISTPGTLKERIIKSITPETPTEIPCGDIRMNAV

Regarding `O=c1ccccn1CC1(O)CCN(Cc2ccccc2F)CC1` [Compound 2, 1-{[1-(2-fluorobenzyl)-4-hydroxypiperidin-4-yl]-methyl}-pyridin-2(1H)-one], the inhibition at 10 µM in assay [1] (compound 10^-5 mol/L) and in assay [2] (compound 10^-5 mol/L) was 100% each time. Further, the inhibition at 0.1 µM in assay [1] (compound 10^-7 mol/L) came out at 50%; in assay [2] (compound 10^-7 mol/L), 58%.
With `O=c1ccccn1CC1(O)CCN(Cc2ccc(F)cc2)CC1` [Compound 3, 1-{[1-(4-fluorobenzyl)-4-hydroxypiperidin-4-yl]-methyl}-pyridin-2(1H)-one], the inhibition at 10 µM in assay [2] (compound 10^-5 mol/L) worked out at 100%. The inhibition at 0.1 µM in assay [2] (compound 10^-7 mol/L) was 10%.
As for `O=c1ccccn1CC1(O)CCN(Cc2ccc(F)cc2F)CC1` [Compound 4, 1-{[1-(2,4-difluorobenzyl)-4-hydroxypiperidin-4-yl]-methyl}-pyridin-2(1H)-p-one], the “Inhibition percent (I %), competitive binding to 5-HT transport protein (SERT)” value in assay [1] (compound 10^-5 mol/L) is reported as 100%; in assay [1] (compound 10^-7 mol/L), 58%. Besides, the entries for the “Inhibition percent (I %), competitive binding to 5-HT1A receptor” value in assay [2] (compound 10^-5 mol/L) and in assay [2] (compound 10^-7 mol/L) were 100% and 57%, respectively.
Turning to `O=c1ccc(Br)cn1CC1(O)CCN(Cc2ccccc2)CC1` [Compound 5, 5-bromo-1-[(1-benzyl-4-hydroxypiperidin-4-yl)-methyl]-pyridin-2(1H)-one], the figures for the inhibition at 10 µM in assay [1] (compound 10^-5 mol/L) and in assay [2] (compound 10^-5 mol/L) were 100% and 94%, respectively. Further, the inhibition at 0.1 µM came to 77% in assay [1] (compound 10^-7 mol/L) and 62% in assay [2] (compound 10^-7 mol/L).
The matching figures for `O=c1ccc(Br)cn1CC1(O)CCN(Cc2ccccc2F)CC1` [Compound 6, 5-bromo-1-{[1-(2-fluorobenzyl)-4-hydroxypiperidin-4-yl]-methyl}-pyridin-2(1H)-one]: 87%, 100%, 44% and 74%.
For the molecule `O=c1ccc(Br)cn1CC1(O)CCN(Cc2ccc(F)cc2)CC1` [Compound 7, 5-bromo-1-{[1-(4-fluorobenzyl)-4-hydroxypiperidin-4-yl]-methyl}-pyridin-2(M)-one], the “Inhibition percent (I %), competitive binding to 5-HT1A receptor” value is on record as 59% in assay [2] (compound 10^-5 mol/L) and 2% in assay [2] (compound 10^-7 mol/L).
Regarding `O=c1ccc(Br)cn1CC1(O)CCN(Cc2ccc(F)cc2F)CC1` [Compound 8, 5-bromo-1-{[1-(2,4-fluorobenzyl)-4-hydroxypiperidin-4-yl]-methyl}-pyridin-2(M)-one], the “Inhibition percent (I %), competitive binding to 5-HT1A receptor” value is given as 42% in assay [2] (compound 10^-5 mol/L) and 19% in assay [2] (compound 10^-7 mol/L).
Regarding `Cc1ccn(CC2(O)CCN(Cc3ccccc3)CC2)c(=O)c1` [Compound 9, 1-[(1-benzyl-4-hydroxypiperidin-4-yl)-methyl]-4-methylpyridin-2(M)-one], the “Inhibition percent (I %), competitive binding to 5-HT1A receptor” value in assay [2] (compound 10^-5 mol/L) is recorded as 100%; in assay [2] (compound 10^-7 mol/L) it was 25%.
`Cc1ccn(CC2(O)CCN(Cc3ccccc3F)CC2)c(=O)c1` [Compound 10, 1-{[1-(2-fluorobenzyl)-4-hydroxypiperidin-4-yl]-methyl}-4-methylpyridin-2(M)-one]: the “Inhibition percent (I %), competitive binding to 5-HT1A receptor” value came to 76% in assay [2] (compound 10^-5 mol/L) and 37% in assay [2] (compound 10^-7 mol/L).
As to `Cc1ccn(CC2(O)CCN(Cc3ccc(F)cc3)CC2)c(=O)c1` [Compound 11, 1-{[1-(4-fluorobenzyl)-4-hydroxypiperidin-4-yl]-methyl}-4-methylpyridin-2(M)-one], the “Inhibition percent (I %), competitive binding to 5-HT1A receptor” value in assay [2] (compound 10^-5 mol/L) is 57%; in assay [2] (compound 10^-7 mol/L), 14%.
As to `Cc1ccn(CC2(O)CCN(Cc3ccc(F)cc3F)CC2)c(=O)c1` [Compound 12, 1-{[1-(2,4-difluorobenzyl)-4-hydroxypiperidin-4-yl]-methyl}-4-methylpyridin-2(M)-one], the “Inhibition percent (I %), competitive binding to 5-HT1A receptor” value in assay [2] (compound 10^-5 mol/L) stood at 61%; in assay [2] (compound 10^-7 mol/L) it was 30%.
For `CNCCC(Oc1ccc(C(F)(F)F)cc1)c1ccccc1` (centres unmarked) [Fluoxetine, fluoxetine, reference compound], the “Immobility time (s), tail suspension test” value in assay [3] is 56.2 ± 41.7 s. In addition, the “the latency to the first head-dip” value in assay [4] came to 42.70 ± 9.43 s. Also, in assay [4] (5 min), the “Number of Head dips” value is on record as 9.60 ± 1.49 and the “Time of head dipping” value was 6.31 ± 1.03 s.
As for `CN(C)CCCN1c2ccccc2CCc2ccccc21` [Imipramine, reference compound], the “Immobility time (s), forced swim test” value in assay [5] came to 88.0 ± 58.2 s.
